Data reported in patent US4614714A (priority 1982, dated 1986).
Entries after “also recorded” stand apart in the source; their conditions may differ. Where two headings read alike, the source gives them in different places.

Tests used:
[1] = tested on: glutamic acid oxidase (known enzyme); conditions: cited from earlier work
[2] = target: T1, novel L-glutamic acid oxidase (Streptomyces sp, UniProt Q8L3C7); assay: Effects of various additives on the activity of the novel enzyme; type: biochemical, Streptomyces sp. X-119-6; parameters: from the cultured product of an actinomycete newly isolated from a soil sample; made in house; host or cells: cultured product of the natural (non-recombinant) actinomycete strain, purified; conditions: additive 1 mM, pH 7.4
T1 sequence (Q8L3C7 15-390 limits assumed): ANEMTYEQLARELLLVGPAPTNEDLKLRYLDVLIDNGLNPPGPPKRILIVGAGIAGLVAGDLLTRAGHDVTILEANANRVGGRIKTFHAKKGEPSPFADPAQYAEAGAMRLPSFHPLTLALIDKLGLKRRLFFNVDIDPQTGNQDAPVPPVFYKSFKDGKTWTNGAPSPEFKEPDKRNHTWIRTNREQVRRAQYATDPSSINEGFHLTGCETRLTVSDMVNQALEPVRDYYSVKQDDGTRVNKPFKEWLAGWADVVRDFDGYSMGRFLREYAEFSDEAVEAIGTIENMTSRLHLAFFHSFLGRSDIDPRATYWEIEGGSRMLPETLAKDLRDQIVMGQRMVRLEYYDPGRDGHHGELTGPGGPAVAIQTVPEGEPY
T1 sequence (Q8L3C7 391-520 limits assumed): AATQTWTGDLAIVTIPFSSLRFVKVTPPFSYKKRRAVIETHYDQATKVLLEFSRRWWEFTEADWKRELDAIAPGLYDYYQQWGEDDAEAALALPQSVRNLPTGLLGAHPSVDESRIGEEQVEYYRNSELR
T1 sequence (Q8L3C7 521-701 limits assumed): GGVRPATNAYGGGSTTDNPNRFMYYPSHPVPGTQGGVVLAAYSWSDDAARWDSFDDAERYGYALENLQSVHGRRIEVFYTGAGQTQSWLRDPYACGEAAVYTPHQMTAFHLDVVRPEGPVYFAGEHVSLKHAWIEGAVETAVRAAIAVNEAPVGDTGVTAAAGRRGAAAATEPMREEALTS

[3] = target: T1, novel L-glutamic acid oxidase; assay: Substrate specificity of the novel enzyme, oxygen electrode method
Experimental: The concentration of each substrate was 10 mM, and the reactions were carried out at pH 7.4 (0.1 M potassium phosphate buffer) and pH 6.0 (0.1 M acetate buffer).
That is, 1 ml of 0.1 M potassium phosphate buffer (pH 7.4) containing 10 mM sodium L-glutamate was charged into an oxygen electrode cell and 10 μl of an enzyme solution was added thereto to measure the oxygen consumption rate. One unit of enzyme was determined as the amount of enzyme which consumes 1μ mol of oxygen per minute at 30° C. in the absence of catalase (unit: hereinafter abbreviated as "U").

[4] = target: T2, immobilized L-glutamic acid oxidase (Streptomyces sp, UniProt Q8L3C7); assay: Responses of the L-glutamic acid sensor of Example C1 to various amino acids; type: biochemical, Streptomyces sp. X-119-6; conditions: pH 5.5; read-out: Relative response (%)
T2 construct: from the cultured product of an actinomycete newly isolated from a soil sample; made in house; host or cells: cultured product of the natural (non-recombinant) actinomycete strain; immobilized on a Cellophane membrane with glutaraldehyde
T2 sequence (Q8L3C7 15-390 limits assumed): T1 sequence (Q8L3C7 15-390 limits assumed)
T2 sequence (Q8L3C7 391-520 limits assumed): T1 sequence (Q8L3C7 391-520 limits assumed)
T2 sequence (Q8L3C7 521-701 limits assumed): T1 sequence (Q8L3C7 521-701 limits assumed)
Experimental: In FIG. 18, the sample solution 2 injected through inlet 1 is transferred by a peristaltic pump 4 together with oxygen saturated buffer 3 into a cell 5.
The results obtained by the measurement are shown as relative responses. The reaction was carried out in 0.1M of acetic acid-sodium acetate buffer at pH 5.5 and 30° C.

[5] = tested on: glutamic acid oxidase (known enzyme); conditions: cited from earlier work; remark: listed apart in the source

**Q.** With `[Cl][Cu][Cl]` [CuCl2, cupric chloride] as the compound, how does the “inhibition of the known enzyme (in words)” value [1] read?
**A.** completely inhibited

**Q.** What about the “inhibition of the activity of the novel enzyme (in words)” value [2] of the same compound?
**A.** not inhibited at all

**Q.** For mercury ions, which “inhibition of the known enzyme (in words)” value [1] is on record?
**A.** Substantially completely inhibited

**Q.** Which activity at 10000 µM ([3]; pH 6, read-out: Relative Activity (%) pH 6.0) does the source give for `N[C@@H](Cc1c[nH]cn1)C(=O)O` [L-Histidine] here?
**A.** < 0.1%

**Q.** What about the “activity of the novel enzyme (in words)” value ([3]; pH 7.4) of the same compound?
**A.** substantially no activity

**Q.** And the activity at 10000 µM ([3]; pH 7.4, read-out: Relative Activity (%) pH 7.4)?
**A.** < 0.1%

**Q.** And the activity at 2000 µM [4]?
**A.** < 0.1%

**Q.** What about the “activity of the known enzyme” value ([5]; relative to L-glutamic acid) of the same compound?
**A.** 6.8%

**Q.** And the “relative activity of the known enzyme” value ([5]; velocity of enzymatic reaction for L-glutamic acid given as 100)?
**A.** 6.8

**Q.** Which “inhibition of the known enzyme (in words)” value [1] does the source give for `[Cu+]` [copper ions] here?
**A.** Substantially completely inhibited; also recorded: markedly inhibited
